Several values for one entry are separate records, joined by “and”; a condition that tells them apart may be missing. Equal entries are not always repeated. Entries after “also recorded” stand apart in the source; their conditions may differ.

One assay deals with HIV-1JR-FL EnvΔCT expressed at the surface of HOS cells. Kind of assay: Cell-based ELISA (CBE), 17b readout. The conditions noted are these: MCG analogs 50 μM; BNM-III-170 5 μM; 2G12 and DMSO normalized. As to the method: Detection of trimeric HIV-1 Env at the surface of HOS cells was performed by cell-based ELISA, as described in Desormeaux, “The highly conserved layer-3 component of the HIV-1 gp120 inner domain is critical for CD4-required conformational transitions,” J. Virol. 87:2549-2562; Alsahafi, “Effects of the I559P gp41 change on the conformation and function of the human immunodeficiency virus (HIV-1) membrane envelope glycoprotein trimer,” 2015, PLoS One 10:e0122111; and Veillette, “Conformational evaluation of HIV-1 trimeric envelope glycoproteins using a cell-based ELISA assay,” 2014, J. Vis. Exp., 91:51995. To enhance cell-surface expression of HIV-1 EnvRF a stop codon was introduced to replace the codon for Gly 711, truncating the cytoplasmic tail (ACT). Briefly, HOS cells were seeded in T-75 flasks (3×10^6 cells per flask) and transfected the next day with 22.5 μg of Env-expressing plasmids (wild-type and mutants S375W, S375T, H66A, A582T/L587A, etc) using the standard polyethylenimine (PEI, Polyscience Inc, PA, USA) transfection method. Twenty-four hours after transfection, cells were plated in 384-wells plates (2×10^4 cells per well). One day later, cells were washed twice with blocking buffer (10 mg/mL non-fat dry milk, 1.8 mM CaCl2), 1 mM MgCl2, 25 mM Tris, pH 7.5 and 140 mM NaCl) and then incubated for 30 minutes at room temperature with different concentrations of MCG analogs or equivalent volume of vehicle (DMSO). Cells were then incubated for an additional 1 h at room temperature with anti-HIV-1 Env monoclonal antibodies recognizing CD4-induced gp120 epitopes (17b, A32), CD4-binding site gp120 epitopes (VRC03, VRC01, F105, and b12), gp120 V3 glycans (19b, PGT126, PGT122, and 10.1074), gp120 outer domain (2G12), and gp120-gp41 interface (PGT151 and VRC34) epitopes. All ligands were diluted in blocking buffer. A horseradish peroxidase-conjugated antibody specific for the Fc region of human or mouse IgG (Pierce) was then incubated with the samples for 45 minutes at room temperature. For all conditions, cells were washed 5 times with blocking buffer and 5 times with washing buffer (1.8 mM CaCl2), 1 mM MgCl2, 25 mM Tris, pH 7.5 and 140 mM NaCl). HRP enzyme activity was determined after the addition of 20 μl per well of a 1:1 mix of Western Lightning oxidizing and luminol reagents (Perkin Elmer Life Sciences). Light emission was measured with an LB 941 TriStar luminometer (Berthold Technologies) and analysis with Graph Pad software.
The data of Table 2 is given as the fold over BNM-III-170 (5 μM) of Cell-Based ELISA with MCG Analogs (50 μM)—17b readout, 2G12 and DMSO normalized.
To identify molecules able to expose vulnerable Env epitopes, a cell-based ELISA (CBE) assay was adapted, capable of measuring conformational changes of membrane-bound trimeric Env as described in Veillette, 2014, J. Vis. Exp. doi:10.3791/51995:51995; Haim, 2011, PLoS Pathog 7:e1002101, into a high-throughput screening (HTS) platform (FIG. 10A). Briefly, the cytoplasmic-tail deleted HIV-1JR-FL Tier-2/3 Env was expressed on the surface of HOS cells in a 384-well-plate format. The cytoplasmic tail of Env was deleted to enhance Env expression at the cell surface and therefore enhance the sensitivity of the CBE assay. See, Veilette and Haim, 2009, PLoS Pathog 5:e100036. Small molecules or, as a positive control, soluble (sCD4) were added to expose the HIV-1JR-FL EnvΔCT epitope that can be recognized by the CD4i antibody 17b. See, Wyatt, 1995, J. Virol. 69:5723-5733; Rizzuto, 1998, Science 280:1949-1953.
17b binding was detected by a horseradish peroxidase-conjugated (HRP) second antibody, and HRP enzyme activity was measured by Western Lightning oxidizing and luminal reagents. 17b binding in the presence of sCD4 was set as the control (FIG. 10B, blue dots), small molecules that enhanced 17b binding above 25% of the one induced by sCD4 were retested in quadruplicate and only one molecule (UM0059920) was deemed a true positive (FIG. 10B, red dots). […]
Take `CCCNC(=O)N1C[C@H](N)C[C@H](C(=O)Nc2ccc(Cl)c(F)c2)C1` [(3R,5S)-MCG-IV-226]: the “Fold over BNM-III-170 - 17b binding (±0.05)” value (shortened to “Fold”) is recorded as 0.11 fold.

With `NCCOC(=O)N1C[C@H](N)C[C@H](C(=O)Nc2ccc(Cl)c(F)c2)C1` [(3R,5S)-MCG-IV-272], the “Fold” value stood at 0.07 fold.

Consider `NCCNC(=O)N1C[C@H](N)C[C@H](C(=O)Nc2ccc(Cl)c(F)c2)C1` [(3R,5S)-MCG-IV-273], for which the “Fold” value was determined as 0.06 fold.

In the case of `NCCCNC(=O)N1C[C@H](N)C[C@H](C(=O)Nc2ccc(Cl)c(F)c2)C1` [(3R,5S)-MCG-IV-274], the “Fold” value came to 0.06 fold.

On to `CS(=O)(=O)N1CCC[C@@H](C(=O)Nc2ccc(Cl)cc2)C1` [(R)-MCG-II-156], for which the “Fold” value was 0.08 fold.

In the case of `CS(=O)(=O)N1CCC[C@H](C(=O)Nc2ccc(Cl)cc2)C1` [(S)-MCG-II-153], the “Fold” value was 0.20 fold and 0.31 fold.

`CS(=O)(=O)N1CCC[C@H](C(=O)Nc2ccc(C(F)(F)F)c(F)c2)C1` [(S)-MCG-IV-024-A02]: the “Fold” value worked out at 0.38 fold.

For `CCS(=O)(=O)N1CCC[C@H](C(=O)Nc2ccc(C(F)(F)F)c(F)c2)C1` [(S)-MCG-IV-024-B02], the “Fold” value worked out at 0.36 fold.

As to `CCNC(=O)N1CCC[C@H](C(=O)Nc2ccc(Cl)c(F)c2)C1` [(S)-MCG-IV-031-A02], the “Fold” value is given as 0.37 fold.

For `CN(C)C(=O)N1CCC[C@H](C(=O)Nc2ccc(Cl)c(F)c2)C1` [(S)-MCG-IV-031-A03], the “Fold” value turned out to be 0.71 fold.

`CCN(C)C(=O)N1CCC[C@H](C(=O)Nc2ccc(Cl)c(F)c2)C1` [(S)-MCG-IV-031-A04]: the “Fold” value was 0.54 fold.

Regarding `CC(C)CNC(=O)N1CCC[C@H](C(=O)Nc2ccc(Cl)c(F)c2)C1` [(S)-MCG-IV-031-A06], the “Fold” value stood at 0.42 fold.

Consider `COC(=O)N1CCC[C@H](C(=O)Nc2ccc(C(F)(F)F)c(F)c2)C1` [(S)-MCG-IV-050-A01], for which the “Fold” value turned out to be 0.44 fold.

Take `CCOC(=O)N1CCC[C@H](C(=O)Nc2ccc(C(F)(F)F)c(F)c2)C1` [(S)-MCG-IV-050-A02]: the “Fold” value is recorded as 0.49 fold.

Take `CNC(=N)N1CCC[C@H](C(=O)Nc2ccc(Cl)c(F)c2)C1` [(S)-MCG-IV-053-A01]: the “Fold” value is 0.42 fold.

As to `CCCNC(=N)N1CCC[C@H](C(=O)Nc2ccc(Cl)c(F)c2)C1` [(S)-MCG-IV-053-A05], the “Fold” value was determined as 0.85 fold.

Regarding `CC(C)CNC(=N)N1CCC[C@H](C(=O)Nc2ccc(Cl)c(F)c2)C1` [(S)-MCG-IV-053-A06], the “Fold” value was 0.60 fold.

Turning to `CCCOC(=O)N1CCC[C@H](C(=O)Nc2ccc(Cl)c(F)c2)C1` [(S)-MCG-IV-058], the “Fold” value is listed as 0.51 fold.

For `CC(C)COC(=O)N1CCC[C@H](C(=O)Nc2ccc(Cl)c(F)c2)C1` [(S)-MCG-IV-061], the “Fold” value worked out at 0.62 fold.

With `CNC(=O)N1CCC[C@H](C(=O)Nc2ccc(C(F)(F)F)c(F)c2)C1` [(S)-MCG-IV-063-A01], the “Fold” value came out at 0.33 fold.

On to `CCNC(=O)N1CCC[C@H](C(=O)Nc2ccc(C(F)(F)F)c(F)c2)C1` [(S)-MCG-IV-063-A02], for which the “Fold” value is given as 0.35 fold.

In the case of `CN(C)C(=O)N1CCC[C@H](C(=O)Nc2ccc(C(F)(F)F)c(F)c2)C1` [(S)-MCG-IV-063-A03], the “Fold” value turned out to be 0.48 fold.

For `CCCNC(=O)N1CCC[C@H](C(=O)Nc2ccc(C(F)(F)F)c(F)c2)C1` [(S)-MCG-IV-063-A05], the “Fold” value was 0.45 fold.

As to `CC(C)CNC(=O)N1CCC[C@H](C(=O)Nc2ccc(C(F)(F)F)c(F)c2)C1` [(S)-MCG-IV-063-A06], the “Fold” value is reported as 0.36 fold.

Take `NCCCNC(=O)N1CCC[C@H](C(=O)Nc2ccc(Cl)c(F)c2)C1` [(S)-MCG-IV-211]: the “Fold” value was 0.25 fold.

With `NCCOC(=O)N1CCC[C@H](C(=O)Nc2ccc(Cl)c(F)c2)C1` [(S)-MCG-IV-267], the “Fold” value is 0.30 fold.

The assay is the same for the next values; noted with them: high-throughput screen follow-up; sCD4 as control; result in words.
For the compound `CS(=O)(=O)N1CCC[C@@H](C(=O)Nc2ccc(Cl)cc2)C1` [(R)-MCG-II-156], the “17b binding in the CBE assay (screening hit and enantiomers)” value was “not”.

As for `CS(=O)(=O)N1CCC[C@H](C(=O)Nc2ccc(Cl)cc2)C1` [(S)-MCG-II-153], the “17b binding in the CBE assay (screening hit and enantiomers)” value is reported as “enhanced 17b binding to similar levels as UM0059920; also recorded: active enantiomer”.

For the origin of these results see US12286401B2, “Small molecules that sensitize HIV-1 infected cells to antibody dependent cellular cytotoxicity” (THE TRUSTEES OF THE UNIVERSITY OF PENNSYLVANIA, priority 2018, dated 2025).
